Reference: article PMC12293604, “Anticancer Effect of Nature-Inspired Indolizine-Based Pentathiepines in 2D and 3D Cellular Model” (Cancers, 2025)

How the values were obtained:
[1] = test system: MCF7; assay: MTT cell viability assay, MCF7; format: cell-based; conditions: Homo sapiens, MCF7, 48h treatment, mean ± S.D.
Procedure: (§1) The human cancer cell lines MCF7 (HTB-22, breast adenocarcinoma), MDA-MB-231 (HTB-26, breast adenocarcinoma), HCT116 (CCL-247, colorectal carcinoma), and A549 (CRM-CCL-185, lung carcinoma) were obtained from the American Type Culture Collection (ATCC, Manassas, VA, USA). The fibroblast cell line CR9, kindly provided by Dr. Guven, was maintained in ISCOVE medium. HCT116 cells were cultured in Dulbecco’s Modified Eagle Medium (DMEM), whereas A549, MCF7, and MDA-MB-231 cells were maintained in Roswell Park Memorial Institute 1640 (RPMI-1640) medium. All media were supplemented with 10% fetal bovine serum (FBS), 1% L-glutamine, and 0.5% antibiotic mixture (penicillin, streptomycin, and neomycin). Cell cultures were maintained at 37 °C in a humidified atmosphere with 5% CO2, following standard culture protocols. Additionally, for HCT116 cells, the culture medium was further supplemented with 1% sodium pyruvate and 1% non-essential amino acids.
(§2) To evaluate the impact of the tested PTEs on cell viability, a colorimetric MTT assay was performed as previously described. Briefly, cells were seeded in 96-well microplates at initial densities of 5 × 10^3 cells per well for the MCF7, MDA-MB231, and A549 cell lines, and 4 × 10^3 cells per well for HCT116 cells. After an initial 24 h incubation period to allow for cell attachment and growth, the cultures were treated with different concentrations of PTEs (0.25–20 µM). Following 48 h of treatment, 50 μL of MTT solution (2 mg/mL in PBS) was added to each well, and the plates were incubated at 37 °C for 3 h to allow for MTT reduction by metabolically active cells. The resulting formazan crystals were solubilized, and cell viability was measured by recording the absorbance at 570 nm using an iMark Microplate Reader (BIORAD, Segrate, Milan, Italy). The cytotoxic effectiveness of the compounds was expressed as IC50 values, which were calculated from dose–response curves fitted with non-linear regression analysis using Calcusyn version 1.1.4. software (Biosoft, Cambridge, UK).

[2] = test system: MDA-MB231; assay: MTT cell viability assay, MDA-MB231; format: cell-based; conditions: Homo sapiens, MDA-MB-231, MDA-MB231, 48h treatment, mean ± S.D.
Procedure: as §1, §2

[3] = test system: A549; assay: MTT cell viability assay, A549; format: cell-based; conditions: Homo sapiens, A549, 48h treatment, mean ± S.D.
Procedure: as §1, §2

[4] = test system: HCT116; assay: MTT cell viability assay, HCT116; format: cell-based; conditions: Homo sapiens, HCT-116, HCT116, 48h treatment, mean ± S.D.
Procedure: as §1, §2

[5] = test system: CR9 human fibroblast cells; assay: MTT cell viability assay, CR9 fibroblasts; format: cell-based; conditions: 48h treatment, mean ± S.D.
Procedure: as §1, §2

[6] = test system: MCF7, MDA-MB-231, A549, and HCT116 cells; assay: MTT cell viability assay, summary across the cell line panel; format: cell-based, human; conditions: 48 h treatment, across tested cell lines
Procedure: The fibroblast cell line CR9, kindly provided by Dr. Guven, was maintained in ISCOVE medium. […] All media were supplemented with 10% fetal bovine serum (FBS), 1% L-glutamine, and 0.5% antibiotic mixture (penicillin, streptomycin, and neomycin). Cell cultures were maintained at 37 °C in a humidified atmosphere with 5% CO2, following standard culture protocols. Additionally, for HCT116 cells, the culture medium was further supplemented with 1% sodium pyruvate and 1% non-essential amino acids.
as §2, with “Following 48 h of treatment, 50 μL of MTT solution (2 mg/mL in PBS) was added to each well, and the plates were incubated at 37 °C for 3 h to allow for MTT reduction by metabolically active cells.” left out

[7] = test system: MCF7, MDA-MB231, A549 and HCT116 cells; assay: Apoptotic cell death, flow cytometry (sub-G1, PI); format: cell-based, human; conditions: 48 h treatment at IC50 concentration, vs. untreated controls
Procedure: (§3) The potential of the tested PTE derivatives to induce apoptotic and/or necrotic cell death, as well as to cause alterations in cell cycle distribution, was evaluated following a 48 h exposure to their respective IC50 concentrations, using flow cytometric analysis as previously described. Briefly, the indicated cell lines were seeded in 12-well plates (3 × 10^5 cells/well) and treated 24 h post-seeding. At the end of the treatment period, following harvesting, cells were washed with PBS and fixed in ice-cold 70% ethanol at −20 °C for a minimum duration of 45 min, to assess apoptotic cell death and perform cell cycle analysis. After fixation, cells were washed again with PBS and stained with a propidium iodide (PI)/RNase solution (50 µg/mL PI and 30 U/mL RNase) in PBS for 15 min at room temperature.
(§4) Flow cytometric analysis was performed using a FACScalibur flow cytometer (Becton Dickinson, Milan, Italy), equipped with a 15 mW, 488 nm air-cooled argon ion laser. Data were acquired and analyzed with CellQuestPRO version 5.1 software. PI fluorescence was detected using a 575 nm band-pass filter. The percentage of apoptotic cells was determined by identifying sub-G1 peaks in monoparametric histograms obtained in logarithmic mode. For cell cycle distribution, PI fluorescence was also analyzed with monoparametric histograms, but data were collected in linear mode.

[8] = test system: HCT116; assay: Necrotic cell death, flow cytometry (PI without fixation), HCT116; format: cell-based, human; conditions: HCT116, 48 h treatment at IC50 concentration
Procedure: as §3, §4
Necrotic cell death was assessed by omitting the ethanol fixation step from the staining protocol, thereby enabling propidium iodide (PI) to penetrate membrane-compromised cells, indicative of necrosis.

[9] = test system: MDA-MB231; assay: Cell cycle distribution, flow cytometry, MDA-MB231; format: cell-based, human; conditions: MDA-MB231, 48 h at equitoxic (IC50) concentrations
Procedure: as §3, §4

[10] = test system: HCT116; assay: Cell cycle distribution, flow cytometry, HCT116; format: cell-based, human; conditions: HCT116, 48 h at equitoxic (IC50) concentrations
Procedure: as §3, §4

[11] = test system: MDA-MB231; assay: Intracellular ROS levels (DCFH-DA), MDA-MB231; format: cell-based, human; conditions: MDA-MB231, 48 h at IC50 concentration, vs. CTR
Procedure: (§5) Intracellular ROS levels were quantified using 2′,7′-dichlorodihydrofluorescein diacetate (DCFH-DA) as a fluorescent probe. After 48 h of treatment, cells were collected, rinsed with PBS, and incubated in a PBS solution containing 10 µM DCFH-DA. Following incubation, fluorescence corresponding to oxidized fluorescein was measured using a 530 nm band-pass filter. ROS production was expressed in arbitrary units based on the median fluorescence intensity (MFI).

[12] = test system: MCF7, MDA-MB231, A549 and HCT116 cells; assay: Intracellular ROS levels (DCFH-DA), summary across cell lines; format: cell-based, human; conditions: 48 h at IC50 concentration, four cell lines
Procedure: as §5

[13] = test system: MCF7, MDA-MB231, A549 and HCT116 cell lines; assay: Hydrosulfide production (DNS-N3 probe), summary across cell lines; format: cell-based, human; conditions: 48 h at IC50 concentration, all cell lines
Procedure: (§6) PTEs-induced sulfide production was evaluated using dansyl azide (DNS-N3) as a probe. DNS-N3 is non-fluorescent itself, while in the presence of hydrosulfide, the azide transforms into the dansyl amide and fluorescence is switched on. After 48 h of treatment, cells were harvested, washed with PBS, and incubated in a PBS solution containing 200 μM DNS-N3. Following 30 min incubation at 37 °C, fluorescence increase was measured through a 575 nm band-pass filter. The levels of hydrosulfide production were assessed and reported in arbitrary units, calculated from the median fluorescence intensity (MFI) measurements. For all flow cytometric analyses, untreated cells (i.e., not exposed to PTE compounds) were used as negative controls.

[14] = test system: MCF7; assay: Intracellular ROS levels (DCFH-DA), MCF7; format: cell-based, human; conditions: MCF7, 48 h at IC50 concentration, vs. CTR
Procedure: as §5

[15] = test system: HCT116; assay: Hydrosulfide production (DNS-N3 probe), HCT116; format: cell-based, human; conditions: HCT116, 48 h at IC50 concentration
Procedure: as §6

[16] = test system: MCF7; assay: Cell cycle distribution, flow cytometry, MCF7; format: cell-based, human; conditions: MCF7, 48 h at equitoxic (IC50) concentrations
Procedure: as §3, §4

[17] = test system: A549; assay: Cell cycle distribution, flow cytometry, A549; format: cell-based, human; conditions: A549, 48 h at equitoxic (IC50) concentrations
Procedure: as §3, §4

[18] = test system: HCT116; assay: Intracellular ROS levels (DCFH-DA), HCT116; format: cell-based, human; conditions: HCT116, 48 h at IC50 concentration, vs. CTR
Procedure: as §5

SMILES | IC50 [1] | IC50 [2] | IC50 [3] | IC50 [4] | IC50 [5] | cytotoxic potency (in words) [6] | apoptotic cell death [7] | necrosis relative to apoptosis [8] | cell cycle shift: decrease in the G0/G1 phase population with G2/M phase accumulation [9] | cell cycle shift: decrease in the G0/G1 phase population with G2/M phase accumulation [10] | increase in ROS production [11] | ROS production (ranking in words) [12] | sulfide production (in words) [13] | cytotoxic potency (in words) ([6]; listed as 2^PG) | cytotoxic potency (in words) ([6]; listed as 2^Ph) | increase in ROS production [14] | sulfide increase [15] | cell cycle shift: decrease in the G0/G1 phase population with G2/M phase accumulation [16] | cell cycle shift: decrease in the G0/G1 phase population with G2/M phase accumulation [17] | increase in ROS production [18]
OCCOc1c2c(c3ccccn13)SSSSS2 [2^Gly] | 1130 ± 20 nM | 300 ± 30 nM | 790 ± 60 nM | 603 ± 40 nM | 1610 ± 130 nM | highest cytotoxic potency | most potent inducers of apoptosis | higher levels of necrosis relative to apoptosis | triggered similar effects | triggered similar effects | statistically significant | better ROS producers | most potent inducers of sulfide production |  |  |  |  |  |  | 
Cc1c2c(c3ccccn13)SSSSS2 [2^Me] | 4770 ± 140 nM | 1450 ± 40 nM | 2540 ± 270 nM | 2270 ± 340 nM | 7910 ± 320 nM | noteworthy efficacy | most potent inducers of apoptosis | higher levels of necrosis relative to apoptosis | triggered similar effects | triggered similar effects | statistically significant | better ROS producers | most potent inducers of sulfide production | highest cytotoxic potency | lowest cytotoxic activity | statistically significant | did not induce sulfide increase |  |  | 
CCOc1c2c(c3ccc(C=O)cn13)SSSSS2 [3^CHO, 6-ethoxy-9-formyl-[1,2,3,4,5]pentathiepino [6,7-a]indolizine] | 1700 ± 30 nM | 390 ± 40 nM | 1030 ± 40 nM | 740 ± 60 nM | 1900 ± 120 nM | highest cytotoxic potency | most potent inducers of apoptosis | higher levels of necrosis relative to apoptosis | exerted this effect exclusively in MDA-MB231 cells |  | statistically significant | better ROS producers | most potent inducers of sulfide production |  |  | statistically significant |  |  |  | 
CCOc1c2c(c3ccc([N+](=O)[O-])cn13)SSSSS2 [3^NO2] | 3210 ± 130 nM | 630 ± 750 nM | 3220 ± 390 nM | 1590 ± 150 nM | 2870 ± 140 nM | noteworthy efficacy | most potent inducers of apoptosis |  |  |  | statistically significant |  |  |  |  | statistically significant |  |  |  | 
CCOc1c2c(c3ccccn13)SSSSS2 [compound 1] | 2680 ± 310 nM | 630 ± 40 nM | 1540 ± 80 nM | 830 ± 40 nM | 7320 ± 150 nM | noteworthy efficacy | most potent inducers of apoptosis |  | induced this characteristic cell cycle shift | induced this characteristic cell cycle shift | statistically significant | better ROS producers | most potent inducers of sulfide production |  |  | statistically significant |  | induced this characteristic cell cycle shift | induced this characteristic cell cycle shift | statistically significant
COc1cccc2c1C(=O)c1c(O)c3c(c(O)c1C2=O)C[C@@](O)(C(=O)CO)C[C@@H]3O[C@H]1C[C@H](N)[C@H](O)[C@H](C)O1 [doxo, doxorubicin, reference compound] | 4500 ± 510 nM | 17800 ± 1960 nM | 1500 ± 210 nM | 3500 ± 600 nM |  |  |  |  |  |  |  |  |  |  |  |  |  |  |  | 
